Reference: DBAASP
Values after ≈ are worked out from the molar mass of the structure shown. Values joined by “and” are separate entries in the source; they are usually repeats but may differ in a detail not shown here. Equal entries are not always repeated. One block for each compound: values may come before it.

Columns and labels:
Assay in all cases: ≥ marks a high value that may be exact or a test limit, other limits are often not marked, values filed in µg/mL are converted to µM
Bacillus subtilis 168 HT = tested on: Bacillus subtilis 168 HT
[1] = tested on: Escherichia coli K12 MG1655
[2] = tested on: Staphylococcus aureus ST88
[3] = tested on: Staphylococcus haemolyticus 527
[4] = tested on: Escherichia coli NBRC 14237
[5] = tested on: Pseudomonas aeruginosa NBRC 12582
[6] = tested on: Saccharomyces cerevisiae NBRC 10217
[7] = tested on: Staphylococcus aureus NBRC 12732
[8] = tested on: Aspergillus oryzae NBRC 100959
[9] = tested on: Candida viswanathii NBRC 10321
[10] = tested on: Escherichia coli NBRC 3972
[11] = tested on: Micrococcus luteus NBRC 3333
[12] = tested on: Staphylococcus epidermidis NBRC 12993
[13] = tested on: Escherichia coli ATCC 25922
[14] = tested on: Klebsiella pneumoniae ATCC 13883
[15] = tested on: Staphylococcus aureus USA 300 LAC
[16] = tested on: Pseudomonas aeruginosa 253
[17] = tested on: Pseudomonas aeruginosa 910
[18] = tested on: Pseudomonas aeruginosa 919
[19] = tested on: Pseudomonas aeruginosa PAO1
[20] = tested on: Bacillus subtilis ATCC 6633
[21] = tested on: Candida albicans ATCC 10231
[22] = tested on: Candida parapsilosis ATCC 22019
Cryptococcus neoformans = tested on: Cryptococcus neoformans
[23] = tested on: Escherichia coli ATCC 9637
[24] = tested on: Klebsiella pneumoniae ATCC 27736
[25] = tested on: Pseudomonas aeruginosa ATCC BAA-427
[26] = tested on: Staphylococcus aureus ATCC 25923
[27] = tested on: Staphylococcus aureus ATCC 29213
[28] = tested on: Staphylococcus aureus ATCC 33592
[29] = tested on: Staphylococcus aureus ATCC 700698
[30] = tested on: Staphylococcus aureus ATCC 700699
[31] = tested on: Staphylococcus aureus ATCC BAA-44
[32] = tested on: Escherichia coli ATCC 9723H
Escherichia coli NDM = tested on: Escherichia coli NDM
[33] = tested on: Staphylococcus aureus ATCC 6538P
[34] = tested on: Candida albicans ATCC 90028
[35] = tested on: Enterococcus faecium ATCC 29212
[36] = tested on: Escherichia coli O157:H7 ATCC 43895
[37] = tested on: Malassezia furfur KCTC 7744
[38] = tested on: Pseudomonas aeruginosa ATCC 27853
[39] = tested on: Streptococcus mutans KCTC 3065
[40] = tested on: Trichosporon beigelii KCTC 7707
[41] = tested on: Vibrio vulnificus ATCC 29307

MIC [8]: 14.9 µM (≈ 25 µg/mL) | MIC [9]: 14.9 µM (≈ 25 µg/mL) | MIC [10]: ≥ 239 µM | MIC [11]: 29.8 µM (≈ 50 µg/mL) | MIC [12]: 14.9 µM (≈ 25 µg/mL)
SMILES: CSCC[C@H](NC(=O)[C@H](CCCCN)NC(=O)[C@@H](N)CCCN=C(N)N)C(=O)N[C@@H](CCCCN)C(=O)N[C@@H](CCCN=C(N)N)C(=O)N[C@H](C(=O)N[C@@H](Cc1c[nH]c2ccccc12)C(=O)N[C@@H](CCCCN)C(=O)N[C@@H](CCCN=C(N)N)C(=O)N[C@@H](Cc1ccccc1)C(=O)N[C@@H](CCCCN)C(=O)N[C@@H](CC(C)C)C(=O)O)C(C)C [RKMKRVWKRFKL]

MIC [13]: 12.5 µM (≈ 15.9 µg/mL) | MIC [14]: 17.7 µM (≈ 22.5 µg/mL) | MIC [15]: 3.1 µM (≈ 3.94 µg/mL)
SMILES: CC[C@H](C)[C@H](N)C(=O)N[C@@H](Cc1c[nH]c2ccccc12)C(=O)N[C@@H](Cc1c[nH]c2ccccc12)C(=O)N[C@@H](Cc1c[nH]c2ccccc12)C(=O)N[C@@H](Cc1c[nH]c2ccccc12)C(=O)N[C@@H](CC(C)C)C(=O)N[C@@H](CCCN=C(N)N)C(=O)N[C@@H](CCCCN)C(N)=O [IWWWWLRK]

MIC [16]: 16 µM (≈ 30.2 µg/mL) | MIC [17]: 8 µM (≈ 15.1 µg/mL) | MIC [18]: ≥ 32 µM | MIC [19]: 4 µM (≈ 7.56 µg/mL)
SMILES: CC[C@H](C)[C@H](NC(=O)[C@@H](N)Cc1ccccc1)C(=O)N[C@@H](CCCCN)C(=O)N[C@@H](Cc1c[nH]c2ccccc12)C(=O)N[C@@H](CCCCN)C(=O)N[C@@H](CCCCN)C(=O)N[C@@H](CCCN=C(N)N)C(=O)N[C@@H](Cc1c[nH]c2ccccc12)C(=O)N[C@@H](Cc1c[nH]c2ccccc12)C(=O)N[C@@H](CCCCN)C(=O)N[C@@H](CCCCN)C(=O)N[C@@H](CCCN=C(N)N)C(=O)N[C@H](C(N)=O)[C@@H](C)O [FIKWKKRWWKKRT]

MIC [20]: 3.8 µM (≈ 6.16 µg/mL) | MIC [21]: 6 µM (≈ 9.73 µg/mL) | MIC [22]: 6 µM (≈ 9.73 µg/mL) | MIC (Cryptococcus neoformans): 6 µM (≈ 9.73 µg/mL) | MIC [13]: 1.9 µM (≈ 3.08 µg/mL) | MIC [23]: 6.25 µM (≈ 10.1 µg/mL) | MIC [24]: 3.8 µM (≈ 6.16 µg/mL) | MIC [25]: 6.8 µM (≈ 11 µg/mL) | MIC [26]: 3.8 µM and 7.6 µM | MIC [27]: 12 µM (≈ 19.5 µg/mL) | MIC [28]: 12 µM (≈ 19.5 µg/mL) | MIC [29]: 12 µM (≈ 19.5 µg/mL) | MIC [30]: 12 µM (≈ 19.5 µg/mL) | MIC [31]: 12 µM (≈ 19.5 µg/mL)
SMILES: CC[C@H](C)[C@H](NC(=O)[C@H](CCCN=C(N)N)NC(=O)CNC(=O)[C@H](CC(C)C)NC(=O)[C@H](CCCCN)NC(=O)[C@H](CCCCN)NC(=O)[C@H](Cc1c[nH]c2ccccc12)NC(=O)[C@H](Cc1ccccc1)NC(=O)[C@H](CO)NC(=O)[C@H](CCCCN)NC(=O)[C@@H](NC(=O)[C@@H](N)Cc1ccccc1)C(C)C)C(=O)N[C@@H](CC(C)C)C(N)=O [FVKSFWKKLGRIL]

The remaining lines, values behind:

SMILES: CC[C@H](C)[C@H](N)C(=O)N[C@H](C(=O)N[C@@H](CCCCN)C(=O)N[C@@H](CCCN=C(N)N)C(=O)N[C@@H](Cc1ccccc1)C(=O)N[C@@H](Cc1ccccc1)C(=O)N[C@@H](CCCN=C(N)N)C(=O)N[C@H](C(=O)N[C@@H](CO)C(=O)N[C@@H](Cc1ccc(O)cc1)C(=O)N[C@@H](CCCCN)C(=O)N[C@@H](CC(C)C)C(=O)N[C@@H](CCC(N)=O)C(=O)N[C@@H](CO)C(=O)N[C@@H](CC(C)C)C(=O)N[C@@H](CCCCN)C(=O)N[C@H](C(=O)N[C@H](C(=O)N[C@@H](CCCCN)C(=O)NCC(=O)N[C@@H](CCCCN)C(=O)N[C@@H](CCCN=C(N)N)C(=O)N[C@H](C(=O)N[C@@H](Cc1ccccc1)C(=O)N[C@H](C(=O)O)[C@@H](C)O)[C@@H](C)O)[C@@H](C)CC)[C@@H](C)CC)[C@@H](C)CC)C(C)C [IVKRFFRISYKLQSLKIIKGKRTFT]
MIC (Bacillus subtilis 168 HT): 5.3 µM (≈ 16.3 µg/mL) | MIC [1]: 10.5 µM (≈ 32.3 µg/mL) | MIC [2]: ≥ 100 µM | MIC [3]: 5.3 µM (≈ 16.3 µg/mL)

SMILES: CSCC[C@H](NC(=O)CNC(=O)[C@@H](NC(=O)[C@H](CCCCN)NC(=O)[C@H](C)NC(=O)CNC(=O)[C@@H](NC(=O)[C@H](CCCCN)NC(=O)[C@H](C)NC(=O)[C@H](C)NC(=O)[C@H](CCCCN)NC(=O)[C@H](CCCCN)NC(=O)[C@H](CC(C)C)NC(=O)[C@H](Cc1ccccc1)NC(=O)[C@H](CC(N)=O)NC(=O)[C@H](CC(C)C)NC(=O)[C@H](Cc1ccccc1)NC(=O)[C@H](CCCCN)NC(=O)CNC(=O)CNC(=O)[C@@H](N)CCCCN)C(C)C)C(C)C)C(=O)N[C@@H](C)C(=O)N[C@@H](C)C(=O)N[C@@H](CC(C)C)C(=O)NCC(=O)O [KGGKFLNFLKKAAKVGAKVGMAALG]
MIC [4]: 3.12 µM (≈ 7.83 µg/mL) | MIC [5]: 6.25 µM (≈ 15.7 µg/mL) | MIC [6]: 6.25 µM (≈ 15.7 µg/mL) | MIC [7]: 3.12 µM (≈ 7.83 µg/mL)

SMILES: CC[C@H](C)[C@H](NC(=O)[C@@H](NC(=O)[C@@H]1CCCN1C(=O)[C@H](CC(C)C)NC(=O)[C@H](Cc1ccccc1)NC(=O)[C@H](CCCCN)NC(=O)[C@H](CC(N)=O)NC(=O)[C@H](C)NC(=O)[C@H](CC(C)C)NC(=O)[C@@H]1CCCN1C(=O)[C@H](CC(C)C)NC(=O)[C@@H](NC(=O)[C@H](CCCN=C(N)N)NC(=O)[C@@H]1CCCN1C(=O)[C@H](Cc1ccccc1)NC(=O)[C@@H](N)Cc1ccccc1)C(C)C)[C@@H](C)O)C(=O)N[C@@H](Cc1ccc(O)cc1)C(=O)N[C@@H](CS)C(=O)N[C@@H](C)C(=O)N[C@@H](CC(C)C)C(=O)N1CCC[C@H]1C(=O)N[C@@H](CCCCN)C(=O)N[C@@H](CO)C(=O)N[C@H](C(=O)NCC(=O)N[C@@H](CC(N)=O)C(=O)O)C(C)C [FFPRVLPLANKFLPTIYCALPKSVGN]
MIC [13]: 6 µM (≈ 17.4 µg/mL) | MIC [32]: 15.6 µM (≈ 45.2 µg/mL) | MIC (Escherichia coli NDM): 6 µM (≈ 17.4 µg/mL) | MIC [33]: ≥ 88 µM

SMILES: CC(C)C[C@H](N)C(=O)N[C@@H](CCCN=C(N)N)C(=O)N[C@@H](CCC(N)=O)C(=O)N[C@@H](CO)C(=O)N[C@@H](CCC(N)=O)C(=O)N[C@@H](Cc1ccccc1)C(=O)N[C@H](C(=O)NCC(=O)N[C@@H](CO)C(=O)N[C@@H](CCCN=C(N)N)C(N)=O)C(C)C [LRQSQFVGSR]
MIC [34]: ≥ 42.5 µM | MIC [35]: 21.3 µM (≈ 25.1 µg/mL) | MIC [36]: 10.6 µM (≈ 12.5 µg/mL) | MIC [37]: ≥ 42.5 µM | MIC [38]: 21.3 µM (≈ 25.1 µg/mL) | MIC [26]: 42.5 µM (≈ 50 µg/mL) | MIC [39]: 21.3 µM (≈ 25.1 µg/mL) | MIC [40]: 21.3 µM (≈ 25.1 µg/mL) | MIC [41]: ≥ 42.5 µM
